The text below walks through data of publication PMC9780888, “4-Isobutylmethcathinone—A Novel Synthetic Cathinone with High In Vitro Cytotoxicity and Strong Receptor Binding Preference of Enantiomers” (Pharmaceuticals, 2022).

For assay [1], the system named is MRC-5 cells. In words: Fluorescence microscopy of cell morphology, MRC-5. It is filed as cell-based, human. Particulars: MRC-5, 24-h treatment, 100-500 µM. From the text:
In addition to the evaluation of IBMcat cytotoxicity in various cell lines, its impact on cell morphology was also examined in CaCo-2 and MRC-5 cells after 24-h treatment. F-actin and cell nuclei were visualized in these cells treated with 100, 300, and 500-µM concentrations of IBMcat and its enantiomers. IBMcat (Figure 7) induced a considerable change in CaCo-2 cell morphology already from 300-µM concentration, the cells were smaller, bore roundish shapes, and grew in clusters when compared to control untreated cells. This could be ascribed to the substantial toxicity of IBMcat manifested already after 24 h at this concentration. No difference was observed between the individual enantiomers.
A total of 1 × 10^5 CaCo-2 and MRC-5 cells were seeded into 35-mm glass-bottom dishes for live-cell imaging ((#1.5, MatTek, USA; Ibidi dishes, Germany). After 16 h, the cells were gently washed with phosphate-buffered saline (PBS; pH 7.4), and then, cultivation media containing 100–500 µM IBMCat was added. Untreated cells and cells treated with the vehicle served as controls. After 24 h of the cell incubation with IBMCat, the cells were gently washed with PBS and then fixed with a 4% solution of formaldehyde (methanol-free, Thermo Fisher, USA) in PBS for 20 min. at 22 °C in the dark. Then, the fixative was discarded, and the cells were washed twice with PBS. […]

For assay [2], the target named is T1, ADRA2C (alpha-2C adrenergic receptor) (Homo sapiens, UniProt P18825).
T1 construct: Tango construct (TEV cleavage site and tTA, as described for the dopamine receptor plasmids); host or cells: HTLA (HEK 293-derived)
T1 sequence (P18825 whole entry): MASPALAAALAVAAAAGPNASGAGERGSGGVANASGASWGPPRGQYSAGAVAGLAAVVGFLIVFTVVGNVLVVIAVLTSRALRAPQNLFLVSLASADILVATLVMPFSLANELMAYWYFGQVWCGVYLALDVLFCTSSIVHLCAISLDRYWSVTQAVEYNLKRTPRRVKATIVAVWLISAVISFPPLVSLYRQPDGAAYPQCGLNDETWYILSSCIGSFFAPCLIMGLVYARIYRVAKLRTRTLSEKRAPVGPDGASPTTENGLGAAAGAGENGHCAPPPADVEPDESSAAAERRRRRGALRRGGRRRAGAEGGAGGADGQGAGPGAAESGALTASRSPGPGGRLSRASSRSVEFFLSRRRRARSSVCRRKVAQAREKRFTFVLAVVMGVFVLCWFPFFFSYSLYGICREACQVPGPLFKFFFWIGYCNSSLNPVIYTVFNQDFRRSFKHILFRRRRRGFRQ
Nature of the assay: PRESTO-Tango β-arrestin 2 recruitment assay, ADRA2C. The conditions noted are these: 500 nM. It counts as cell-based. As to the method: (§1) The HTLA cell line was used for the PRESTO-Tango β-arrestin recruitment assay. The HTLA cells were provided as a gift from the laboratory of Bryan Roth (Roth Lab, USA). It is a human cell line derived from human embryonic kidney cells (HEK 293) stably expressing β-arrestin in a fusion with the tobacco etch virus protease (TEV) protease and the luciferase gene under the control of the transcription factor tetracycline transcriptional activator (tTA). The HTLA cells were cultured under standard incubation conditions (37 °C, 5% CO2, 95% humidity) in DMEM with 10% FBS. […]
(§2) The transfected HTLA cells were incubated for 24 h, and then 1 × 10^4 cells were seeded per well of a white 96-well clear bottom plate (Brand, Germany) in 40 μL of DMEM with 1% charcoal-stripped FBS (Thermo Fisher Scientific, USA). […] After 5 min., the luminescence was measured using a multi-mode microplate reader SpectraMax iD5 (Molecular Devices, San Jose, CA, USA) measuring the entire wavelength spectrum. All samples were measured in quadruplicates. The data were evaluated by Prism 7 software (GraphPad, […], CA, USA). […]
(§3) The error bar represents standard deviation from four replicates. The data were processed and evaluated by GraphPad Prism Software using one-way ANOVA: * p<0.05; ** p<0.01; *** […]

For assay [3], the target named is T2, ADRB1 (beta-1 adrenergic receptor) (Homo sapiens, UniProt P08588).
T2 construct: Tango construct (TEV cleavage site and tTA, as described for the dopamine receptor plasmids); host or cells: HTLA (HEK 293-derived)
T2 sequence (P08588 whole entry): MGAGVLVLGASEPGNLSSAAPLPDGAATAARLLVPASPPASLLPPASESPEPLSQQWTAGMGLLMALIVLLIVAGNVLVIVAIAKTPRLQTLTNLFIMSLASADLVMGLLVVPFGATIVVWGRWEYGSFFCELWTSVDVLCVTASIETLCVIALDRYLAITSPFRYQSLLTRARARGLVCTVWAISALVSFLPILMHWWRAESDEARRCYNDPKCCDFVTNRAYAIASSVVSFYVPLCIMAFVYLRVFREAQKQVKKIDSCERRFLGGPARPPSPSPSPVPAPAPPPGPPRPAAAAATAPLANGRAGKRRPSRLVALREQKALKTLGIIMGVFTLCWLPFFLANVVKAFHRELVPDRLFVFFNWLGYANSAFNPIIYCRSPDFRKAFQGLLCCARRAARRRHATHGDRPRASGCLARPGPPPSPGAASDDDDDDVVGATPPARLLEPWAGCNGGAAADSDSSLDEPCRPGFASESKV
Nature of the assay: PRESTO-Tango β-arrestin 2 recruitment assay, ADRB1. It is filed as cell-based. The conditions noted are these: ADRB1, 500 nM. As to the method: as §1, §2, §3
For orientation: Activated receptors often draw arrestin, which recruitment assays turn into a signal.

The target in assay [4] is T3, HTR2A (5-hydroxytryptamine receptor 2A) (Homo sapiens, UniProt P28223).
T3 construct: Tango construct (TEV cleavage site and tTA, as described for the dopamine receptor plasmids); host or cells: HTLA (HEK 293-derived)
T3 sequence (P28223 whole entry): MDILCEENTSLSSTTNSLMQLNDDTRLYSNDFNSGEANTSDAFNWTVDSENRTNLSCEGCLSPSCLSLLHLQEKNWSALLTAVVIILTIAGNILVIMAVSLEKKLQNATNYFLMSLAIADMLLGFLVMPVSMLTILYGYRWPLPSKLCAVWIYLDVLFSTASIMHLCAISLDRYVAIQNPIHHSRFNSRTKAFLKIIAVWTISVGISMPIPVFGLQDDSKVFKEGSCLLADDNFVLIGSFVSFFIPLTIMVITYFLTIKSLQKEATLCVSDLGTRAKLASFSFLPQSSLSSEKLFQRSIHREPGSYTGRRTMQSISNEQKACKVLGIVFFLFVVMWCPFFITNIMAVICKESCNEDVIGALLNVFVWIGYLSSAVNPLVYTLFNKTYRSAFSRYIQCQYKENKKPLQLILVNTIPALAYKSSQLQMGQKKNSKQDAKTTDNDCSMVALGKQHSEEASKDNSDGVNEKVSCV
In words: PRESTO-Tango β-arrestin 2 recruitment assay, HTR2A. It is filed as cell-based. The conditions noted are these: 0-500 nM. As to the method: as §1
(§4) The transfected HTLA cells were incubated for 24 h, and then 1 × 10^4 cells were seeded per well of a white 96-well clear bottom plate (Brand, Germany) in 40 μL of DMEM with 1% charcoal-stripped FBS (Thermo Fisher Scientific, USA). […] After 5 min., the luminescence was measured using a multi-mode microplate reader SpectraMax iD5 (Molecular Devices, San Jose, CA, USA) measuring the entire wavelength spectrum. All samples were measured in quadruplicates. The data were evaluated by Prism 7 software (GraphPad, San Jose, CA, USA).
(§5) Figure S13: β-arrestin 2 recruitment PRESTO-Tango assay: activation of the serotonin receptors. […] The data were processed and evaluated by GraphPad Prism Software using one-way […]

In assay [5] the target is T4, HTR2B (5-hydroxytryptamine receptor 2B) (Homo sapiens, UniProt P41595).
T4 construct: Tango construct (TEV cleavage site and tTA, as described for the dopamine receptor plasmids); host or cells: HTLA (HEK 293-derived)
T4 sequence (P41595 whole entry): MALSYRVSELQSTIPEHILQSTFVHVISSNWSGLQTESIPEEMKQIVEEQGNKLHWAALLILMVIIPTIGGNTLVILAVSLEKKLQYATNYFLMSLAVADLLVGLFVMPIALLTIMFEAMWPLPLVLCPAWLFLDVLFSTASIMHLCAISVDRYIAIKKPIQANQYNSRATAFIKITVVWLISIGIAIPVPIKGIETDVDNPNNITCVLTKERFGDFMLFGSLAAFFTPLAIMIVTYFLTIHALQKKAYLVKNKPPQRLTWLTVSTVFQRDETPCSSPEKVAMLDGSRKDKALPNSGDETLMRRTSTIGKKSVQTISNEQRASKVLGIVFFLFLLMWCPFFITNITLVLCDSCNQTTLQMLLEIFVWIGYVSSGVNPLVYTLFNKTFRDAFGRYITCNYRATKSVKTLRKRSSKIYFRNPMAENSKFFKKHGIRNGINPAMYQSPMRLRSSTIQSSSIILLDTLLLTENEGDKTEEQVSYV
Nature of the assay: PRESTO-Tango β-arrestin 2 recruitment assay, HTR2B. It is filed as cell-based. Particulars: 0-500 nM. As to the method: as §1, §4, §5

Turning to `CNC(C)C(=O)c1ccc(CC(C)C)cc1.Cl` (stereo not drawn) [IBMcat, 4-isobutylmethcathinone hydrochloride], in assay [1], the “cell number compared with control” value is recorded as “considerably lesser cells than in the control” and the “effect on cell shape” value was “did not induce any shape-related effect”. Moreover, the “increase in RLU compared to untreated control” value in assay [2] stood at 3.7 fold. In addition, the “increase in the luminescence signal” value in assay [3] is on record as 3 fold. Moreover, the “agonistic activity for HTR2A” value in assay [4] is on record as “did not exhibit any agonistic activity”. The “agonistic activity for HTR2B” value in assay [5] is given as “did not exhibit any agonistic activity”.
